In PMC11491487 (Nature Communications, 2024):
Several values for one entry are separate records, joined by “and”; a condition that tells them apart may be missing. Equal values may be shown once.

How the values were obtained:
chiRyR-I4657M/G4819E [1] = target: T1, chiRyR-I4657M/G4819E (Oryctolagus cuniculus, UniProt P11716, C4657M/F4564Y/G4819E/L4792S/R4563K); test: biochemical; type: biochemical, rabbit
chiRyR-I4657M/G4819E [2] = target: T1, chiRyR-I4657M/G4819E; test: cell-based; parameters: species or system rabbit
rRyR1 L4792S = target: T2, rRyR1 L4792S (Oryctolagus cuniculus, UniProt P11716, L4792S); test: time-lapse [Ca2+]ER fluorescence assay, HEK293 cells; type: cell-based, rabbit; conditions: n = 3
T2 construct: expressed in transfected cells

rRyR1 R4563K = target: T3, rRyR1 R4563K (Oryctolagus cuniculus, UniProt P11716, R4563K); test: as above; type: cell-based, rabbit; conditions: n = 3
T3 construct: expressed in transfected cells

chiRyR [3] = target: T4, chiRyR (Oryctolagus cuniculus, UniProt P11716, C4657I/F4564Y/L4792S/R4563K); test: biochemical; type: biochemical, rabbit
rRyR1 = rRyR1 (Oryctolagus cuniculus, UniProt P11716); test: time-lapse [Ca2+]ER fluorescence assay, HEK293 cells; type: cell-based, rabbit
[4] = test system: diamondback moth (Plutella xylostella); conditions: in vivo; cited from earlier work
rRyR1 C4657I = target: T5, rRyR1 C4657I (Oryctolagus cuniculus, UniProt P11716, C4657I); test: time-lapse [Ca2+]ER fluorescence assay, HEK293 cells; type: cell-based, rabbit; conditions: n = 3
T5 construct: expressed in transfected cells

[5] = test system: Drosophila melanogaster RyR G4915E; test: Bioassay of gene-edited Drosophila melanogaster (feeding, mortality after 24 h); type: in vivo; parameters: key to LD50: AA.: All alive
Sf RyR_I4734M/G4891E = Sf RyR_I4734M/G4891E (Spodoptera frugiperda, UniProt A0A4P8L6R5, G4891E/I4734M); test: cell-based
chiRyR [6] = target: T4, chiRyR; test: cell-based; parameters: species or system rabbit
[7] = test system: Drosophila melanogaster RyR M4758I; test: Bioassay of gene-edited Drosophila melanogaster (feeding, mortality after 24 h); type: in vivo; conditions: 24 h feeding, n = 30
Spodoptera frugiperda = test system: Spodoptera frugiperda; parameters: method as in PMID 31157506; conditions: in vivo; cited from earlier work
Sf RyR = Sf RyR (Spodoptera frugiperda, UniProt A0A4P8L6R5); test: time-lapse [Ca2+]ER fluorescence assay, HEK293 cells; type: cell-based

For `Cc1cc(C(F)(C(F)(F)F)C(F)(F)F)ccc1NC(=O)c1cccc(I)c1C(=O)NC(C)(C)CS(C)(=O)=O` [FLU, flubendiamide], the “[3H]ryanodine binding (B/Bmax)” value (chiRyR-I4657M/G4819E [1]; FLU 10.000 uM) was 0.017 and 0.021 and 0.023 and 0.012, the “effect of the double mutation on activity” value (chiRyR-I4657M/G4819E [1]; [3H]ryanodine binding assay) was “almost completely abolished” and the F/F0 (chiRyR-I4657M/G4819E [2]; FLU 1e-5 uM) was 0.9575 and 0.97 and 0.9884. The F/F0 (chiRyR-I4657M/G4819E [2]; FLU 0.1 uM) was 0.9705 and 0.977 and 1.0074, the F/F0 (chiRyR-I4657M/G4819E [2]; FLU 0.5 uM) was 0.9668 and 0.9819 and 0.9464 and the F/F0 (chiRyR-I4657M/G4819E [2]; FLU 1 uM) was 0.9823 and 0.9988 and 0.9262. For the same compound, the F/F0 (chiRyR-I4657M/G4819E [2]; FLU 10 uM) was 0.9522 and 0.929 and 0.9507, the F/F0 (chiRyR-I4657M/G4819E [2]; FLU 50 uM) was 0.9714 and 0.9397 and 0.895 and the F/F0 (chiRyR-I4657M/G4819E [2]; FLU 100 uM) was 0.9721 and 0.9871 and 0.9807. The F/F0 (chiRyR-I4657M/G4819E [2]; FLU 200 uM) was 0.9521 and 0.9361 and 0.9719, the “effect of the double mutation on activity” value (chiRyR-I4657M/G4819E [2]; time-lapse assay) was “almost completely abolished” and the EC50 (rRyR1 L4792S) was 209 nM. For the same compound, the EC50 (rRyR1 R4563K) was 3900 nM, the EC50 (chiRyR [3]) was 4 ± 1.4 nM and the “[3H]ryanodine binding (B/Bmax)” value (chiRyR [3]; FLU 0.010 uM) was 0.258 and 0.168 and 0.293 and 0.246. The “[3H]ryanodine binding (B/Bmax)” value (chiRyR [3]; FLU 0.100 uM) was 0.203 and 0.262 and 0.293 and 0.332, the “[3H]ryanodine binding (B/Bmax)” value (chiRyR [3]; FLU 1.000 uM) was 0.230 and 0.187 and 0.324 and the “[3H]ryanodine binding (B/Bmax)” value (chiRyR [3]; FLU 10.000 uM) was 0.281 and 0.305 and 0.277 and 0.254. The “[3H]ryanodine binding (B/Bmax)” value (chiRyR [3]; FLU 100.000 uM) was 0.242 and 0.340 and 0.234 and 0.262, the EC50 (rRyR1) was 4500 nM and the F/F0 (rRyR1; FLU 0.01 uM) was 0.9514 and 0.951 and 0.9574. The F/F0 (rRyR1; FLU 0.3 uM) was 0.9294 and 0.929 and 0.9697, the F/F0 (rRyR1; FLU 1 uM) was 0.9591 and 0.9606 and 0.9686 and the F/F0 (rRyR1; FLU 3 uM) was 0.9637 and 0.9616 and 0.9316. The F/F0 (rRyR1; FLU 10 uM) was 0.9738 and 0.9803 and 0.9687, the F/F0 (rRyR1; FLU 30 uM) was 0.9272 and 0.9023 and 0.8951 and the F/F0 (rRyR1; FLU 100 uM) was 0.8351 and 0.825 and 0.8009. The F/F0 (rRyR1; FLU 150 uM) was 0.7879 and 0.7717 and 0.7578, the “fold decrease in sensitivity” value [4] was over 200 fold and the EC50 (rRyR1 C4657I) was 8900 nM. For the same compound, the LD50 ([5]; 24 h feeding, n = 30) was “AA”, the lethality ([5]; in vivo) was “can no longer kill” and the EC50 (Sf RyR_I4734M/G4891E) was over 300000 nM. For the same compound, the F/F0 (Sf RyR_I4734M/G4891E; FLU 0.1 uM) was 0.9354 and 1.022 and 1.001, the F/F0 (Sf RyR_I4734M/G4891E; FLU 1 uM) was 1.08 and 0.9898 and 1.013 and the F/F0 (Sf RyR_I4734M/G4891E; FLU 10 uM) was 0.9775 and 0.9916 and 0.9858. For the same compound, the F/F0 (Sf RyR_I4734M/G4891E; FLU 50 uM) was 0.9682 and 0.9415 and 0.9568, the F/F0 (Sf RyR_I4734M/G4891E; FLU 100 uM) was 0.9687 and 0.9673 and 0.985 and the F/F0 (Sf RyR_I4734M/G4891E; FLU 150 uM) was 1.01 and 0.9761 and 1.006. For the same compound, the F/F0 (Sf RyR_I4734M/G4891E; FLU 200 uM) was 1.016 and 0.9681 and 1.012, the EC50 (chiRyR [6]) was 25.1 nM and the F/F0 (chiRyR [6]; FLU 1e-5 uM) was 0.9549 and 0.9506 and 0.9676. The F/F0 (chiRyR [6]; FLU 0.0001 uM) was 0.9787 and 0.9683 and 0.9464, the F/F0 (chiRyR [6]; FLU 0.01 uM) was 0.8614 and 0.8526 and 0.8697 and the F/F0 (chiRyR [6]; FLU 0.1 uM) was 0.4361 and 0.3436. For the same compound, the F/F0 (chiRyR [6]; FLU 1 uM) was 0.3549 and 0.3294 and 0.3747, the F/F0 (chiRyR [6]; FLU 10 uM) was 0.336 and 0.3416 and 0.3434 and the F/F0 (chiRyR [6]; FLU 50 uM) was 0.3259 and 0.3223 and 0.3318. The F/F0 (chiRyR [6]; FLU 100 uM) was 0.36 and 0.3376 and 0.3503, the LD50 [7] was 10.4 µM and the fold decreased sensitivity (Spodoptera frugiperda) was 5,400 fold. The F/F0 (Sf RyR; FLU 1e-5 uM) was 0.9517 and 0.959 and 0.9803 and 0.9606 and 0.9626 and 0.9095, the F/F0 (Sf RyR; FLU 0.0001 uM) was 0.9669 and 0.9979 and 0.9587 and the F/F0 (Sf RyR; FLU 0.001 uM) was 0.9934 and 1.004 and 1.015 and 1.0081 and 0.9724 and 0.9466. For the same compound, the F/F0 (Sf RyR; FLU 0.005 uM) was 0.9953 and 0.9503 and 0.9362, the F/F0 (Sf RyR; FLU 0.01 uM) was 0.964 and 0.9628 and 0.9439 and 0.9365 and 0.909 and 0.8287 and the F/F0 (Sf RyR; FLU 0.1 uM) was 0.6874 and 0.7084 and 0.7834 and 0.606 and 0.5494 and 0.4561. The F/F0 (Sf RyR; FLU 0.3 uM) was 0.3286 and 0.3161 and 0.2878, the F/F0 (Sf RyR; FLU 0.5 uM) was 0.3948 and 0.4026 and 0.4259 and 0.3563 and 0.3618 and 0.3874 and the F/F0 (Sf RyR; FLU 1 uM) was 0.4531 and 0.5278 and 0.593 and 0.346 and 0.3891 and 0.3741. For the same compound, the F/F0 (Sf RyR; FLU 3 uM) was 0.282 and 0.3083 and 0.312, the F/F0 (Sf RyR; FLU 30 uM) was 0.2907 and 0.2708 and 0.2786 and the F/F0 (Sf RyR; FLU 50 uM) was 0.5223 and 0.4644 and 0.4746 and 0.282 and 0.2723 and 0.2725. For the same compound, the F/F0 (Sf RyR; FLU 100 uM) was 0.3008 and 0.2711 and 0.266, the F/F0 (Sf RyR; FLU 150 uM) was 0.2772 and 0.2807 and 0.3032 and the F/F0 (Sf RyR; FLU 200 uM) was 0.2827 and 0.3427 and 0.3531. The EC50 (Sf RyR; n = 3, read-out: EC50) was 59.3 nM.
